# How the values were obtained:
# ADRA2A = biological target: T1, ADRA2A (Homo sapiens, UniProt P08913); details: antagonist experiments, FIGS. 11F to 11J
# T1 sequence (P08913 1-465): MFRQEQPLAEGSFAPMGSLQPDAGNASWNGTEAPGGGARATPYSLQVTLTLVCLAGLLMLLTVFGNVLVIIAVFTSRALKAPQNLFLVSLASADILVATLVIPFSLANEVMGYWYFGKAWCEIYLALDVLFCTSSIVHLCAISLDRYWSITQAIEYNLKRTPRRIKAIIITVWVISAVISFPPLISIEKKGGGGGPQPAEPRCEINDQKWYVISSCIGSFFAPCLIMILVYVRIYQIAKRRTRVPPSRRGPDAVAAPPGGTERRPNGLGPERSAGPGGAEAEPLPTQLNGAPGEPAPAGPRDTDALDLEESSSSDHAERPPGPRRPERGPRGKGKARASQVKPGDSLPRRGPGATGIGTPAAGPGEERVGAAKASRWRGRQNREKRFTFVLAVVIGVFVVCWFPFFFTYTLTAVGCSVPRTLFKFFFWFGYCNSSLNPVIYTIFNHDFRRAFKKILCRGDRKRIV
# ADRA2C = biological target: T2, ADRA2C (Homo sapiens, UniProt P18825); details: antagonist experiments, FIGS. 11F to 11J
# T2 sequence (P18825 1-462): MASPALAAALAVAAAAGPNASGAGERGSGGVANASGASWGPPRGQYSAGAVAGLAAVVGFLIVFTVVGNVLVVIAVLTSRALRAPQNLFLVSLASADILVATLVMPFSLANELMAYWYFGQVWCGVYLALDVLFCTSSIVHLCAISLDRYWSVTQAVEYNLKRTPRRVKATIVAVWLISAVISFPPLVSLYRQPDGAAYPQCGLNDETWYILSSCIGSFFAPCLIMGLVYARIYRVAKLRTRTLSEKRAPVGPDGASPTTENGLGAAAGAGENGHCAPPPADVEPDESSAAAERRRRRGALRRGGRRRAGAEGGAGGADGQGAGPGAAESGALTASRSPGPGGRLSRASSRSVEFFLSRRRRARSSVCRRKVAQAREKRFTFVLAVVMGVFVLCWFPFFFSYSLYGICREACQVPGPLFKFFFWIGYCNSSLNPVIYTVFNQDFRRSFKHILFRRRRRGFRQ
# ADRB1 = ADRB1 (Homo sapiens, UniProt P08588); details: FIG. 11F
# Sequence of ADRB1 (P08588 whole entry): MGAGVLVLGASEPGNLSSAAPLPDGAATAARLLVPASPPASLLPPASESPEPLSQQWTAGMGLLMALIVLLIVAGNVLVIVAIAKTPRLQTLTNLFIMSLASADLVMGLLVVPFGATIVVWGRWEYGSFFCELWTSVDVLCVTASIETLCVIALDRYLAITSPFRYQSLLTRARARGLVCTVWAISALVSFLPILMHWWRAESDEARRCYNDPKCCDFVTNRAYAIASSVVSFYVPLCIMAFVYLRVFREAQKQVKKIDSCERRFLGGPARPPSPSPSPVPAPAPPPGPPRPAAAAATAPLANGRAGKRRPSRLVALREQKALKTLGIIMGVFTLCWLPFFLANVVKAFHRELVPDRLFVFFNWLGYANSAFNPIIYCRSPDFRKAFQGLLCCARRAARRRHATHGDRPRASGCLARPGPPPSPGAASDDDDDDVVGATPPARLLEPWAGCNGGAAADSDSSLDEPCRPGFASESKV
# ADRA2B = biological target: T3, ADRA2B (Homo sapiens, UniProt P18089); details: antagonist experiments, FIGS. 11F to 11J
# T3 sequence (P18089 1-450): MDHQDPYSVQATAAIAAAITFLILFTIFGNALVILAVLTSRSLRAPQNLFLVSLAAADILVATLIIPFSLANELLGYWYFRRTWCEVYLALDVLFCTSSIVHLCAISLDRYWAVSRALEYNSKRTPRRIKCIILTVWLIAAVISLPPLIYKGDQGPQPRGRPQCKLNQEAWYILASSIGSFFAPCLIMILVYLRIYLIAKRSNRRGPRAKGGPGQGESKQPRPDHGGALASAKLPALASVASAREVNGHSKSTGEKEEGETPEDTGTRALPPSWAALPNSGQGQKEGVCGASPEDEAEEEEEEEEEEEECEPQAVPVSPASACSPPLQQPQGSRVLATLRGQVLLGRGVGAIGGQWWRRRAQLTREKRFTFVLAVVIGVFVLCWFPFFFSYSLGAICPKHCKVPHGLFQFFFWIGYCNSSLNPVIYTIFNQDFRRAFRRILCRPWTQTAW
structure (smiles),measurement,setting,value
C=CCc1ccccc1OCC(O)CNC(C)C (stereo not shown) [alprenolol],inhibition of receptor response by antagonist,ADRA2A,only a modest inhibitory effect at the highest concentrations tested
same,inhibition of receptor response by antagonist,ADRA2C,only a modest inhibitory effect at the highest concentrations tested
same,inhibition of receptor response by antagonist,ADRB1,markedly inhibited
same,inhibition of receptor response by antagonist,ADRA2B,only a modest inhibitory effect at the highest concentrations tested

# Reference: patent publication US20080274913A1, “Multiplex Array Useful for Assaying Protein-Protein Interaction” (priority 2005, published 2008)
